US20260242390A1, “TOTAL SYNTHESES OF PORTIMINE A AND ANALOGUES THEREOF AS SMALL MOLECULE MODULATORS OF NMD3” (priority 2023, published 2026)
Like-named read-outs stand apart in the source and are kept apart here.

Assays:
MCF-7 = experiment: Broad cell line profiling, MCF-7; assay type: cell-based; settings: Homo sapiens, MCF7; MCF-7, Breast Adenocarcinoma; read-out: PA IC50
Text: • A panel of human and mouse cancer cell types used to assess the breadth of PA activity, including multiple therapy resistant metastatic mesenchymal tumor cell lines and primary glioblastoma patient-derived metastatic stem/tumor initiating cell populations.

Jurkat = experiment: Washout experiment, Cell Titerglo cell viability; assay type: cell-based, human; settings: for IC50: Homo sapiens, Jurkat 50 k per well
Jurkat cells = experiment: Cell cycle analysis, propidium iodide flow cytometry; assay type: cell-based, human; settings: for G2M/sub-G1 (mostly apoptotic cells) / S phase entry: Jurkat cells, 10 nM treatment, 24 hr
Experimental: FIG. 2. […] Cell cycle analysis in Jurkat cells. Jurkat cells were treated with 10 nM of indicated compounds for 24 hours, and propodium iodide was used to identify different stages of cells by flow cytometry.
FIG. 6. Portimine A inhibits S phase entry in Jurkat cells. Portimine A downregulates NMD3 at protein level but upregulates in mRNA level in cells, as well as some essential apoptosis proteins. […] Protein degradation of p53, Mcl1, Bid, Bim, Noxa can be rescued by MG132 or Epoxomicin. (B) NMD3 mRNA increased after PA treatment, but not ePA control compound. Jurkat cells were treated with indicated compounds for 24 hr; Cells were then fixed and perform Propidium Iodide staining.
• 1) Portimine A and its functional analogs show stereo-selective acute toxicity in cancer cells (FIG. 1). […] (B) Structure of portimine related analogs: phenyl-portimine A (Ph-PA, 36) and epi-portimine A (ePA, 38). Structure of fully functionalized portimine A-based epimeric probe pair: portimine A-diazirine-alkyne (PA-DA, 35-2) and epi-portimine A-diazirine-alkyne (ePA-DA, 35-1). (C) Cell viability analysis of portimine A and analogs. Jurkat cells were treated with increasing concentrations of portimine A and analogs for 24 hours. All presented data as mean of biological replicated experiments (n=3). […] Jurkat cells were treated with portimine A or analogs for 12 hours at 10 nM. […] Structurally related negative control ePA and PB are non-toxic in all cell types in the current concentrate range. PBMCs (25k per well), Jurkat (10k per well). […] Cell cycle analysis in Jurkat cells (FIG. 2). Jurkat cells were treated with 10 nM of indicated compounds for 24 hours, and propodium iodide was used to identify different stages of cells by flow cytometry. […] (A) PA and Ph-PA show less toxic to healthy PBMCs compared to Jurkat cells. […] (B) Immunoblot of caspase-3 in Jurkat and PBMCs with indicated conditions. […] (A) Pharmacokinetic studies of mouse intraperitoneal (i.p.) and oral (p.o.) administration for portimine (n=3). […] Impact of PA [0.3 or 1 mg/kg intraperitoneally] on MC38 tumor growth in WT mice (n=6). (C) Kaplan-Myer survival curve of WT MC38 tumor-bearing mice (n=6) after treatment with PA as described in (D). Mice were euthanized when tumor area exceeded 2000 mm^3. Statistical analysis was performed using ANOVA analysis followed by multiple comparisons test, * p≤0.05. Treatment condition: Jurkat (60 M per condition); PA-DA/ePA-DA concentration: 0.5 uM, PA or ePA: 5 uM; Incubate with probe with or without competitors (PA, ePA) for 30 min; UV irradiated for 20 min. (0.5 uM PA-DA add a no-UV condition), Standard pulldown & biotin-enrichment and western blot analysis (Elute condition: 2× sample buffer+500 uM biotin, boil for 20 mins); Primary antibody NMD3 (ProteinTech, 1:150), Actin (BioRad, 1:10000). […] Chemical proteomic profiling with PA-DA in Jurkat cells (A, B, C, G) and HCC1806 cells (D, E, F, H) show NMD3 is the primary target candidate of portimine A. Volcano plot in panels A and D show protein competition in cells treated with active photoaffinity probe PA-DA (500 nM) and DMSO or the active competitor portimine A (PA, […]), dotted lines indicate threshold of fold change <4, p-value>0.05. […] (I, J) Confirmation of PA-DA engagement of NMD3 in Jurkat and HCC1806 cells. […] Treatment condition: Jurkat (5M per well). Portimine A concentration: 2 nM-1000 nM; In total treat cell for 12 hours. […] Protein degradation of p53, Mcl1, Bid, Bim, Noxa can be rescued by MG132 or Epoxomicin. […]

For `C=CC1=C[C@@H]2[C@@H]3O[C@]4(CC[C@H](O4)C(C)C[C@@H](O)C3=O)CC(O)C3=NCC[C@@]32CC1` (stereo partly shown) [PA, portimine A], the IC50 (MCF-7) was 0.77 nM, the IC50 (Jurkat; read-out: IC50 after 30 min exposure, washout at 30 min, total 36 hours) was ~5 nM and the IC50 (Jurkat; washout at 4 hr, total 36 hours, read-out: IC50 after 4 hr exposure) was ~2 nM. For the same compound, the “exposure resulting in minimal loss of potency” value (Jurkat; compound washout, cell-based target engagement) was < 1 h, the “decrease in IC50 on removing compound after 30 min” value (Jurkat; washout after 30 min, total 36 hours) was ~ 5 fold and the “cell cycle arrest in Jurkat cells” value (Jurkat cells; 10 nM, 24 hours) was “triggers cell cycle arrest”. The “G2M/sub-G1 (mostly apoptotic cells)” value (Jurkat cells) was “does not affect” and the S phase entry (Jurkat cells) was “inhibited”.

In the case of `C#CCCC1(CCNC(=O)c2ccc(C3=C[C@@H]4[C@@H]5O[C@]6(CC[C@H](O6)C(C)C[C@@H](O)C5=O)CC(O)C5=NCC[C@@]54CC3)cc2)N=N1` (stereo partly shown) [PA-DA, portimine A-diazirine-alkyne], the “G2M/sub-G1 (mostly apoptotic cells)” value (Jurkat cells) is reported as “does not affect” and the S phase entry (Jurkat cells) is reported as “inhibited”.
